In brackets after ≈: the same amount, converted by molar mass. Entries after “also recorded” stand apart in the source; their conditions may differ. Read-outs that look alike come from different tables or passages of the source.
Legend:
Heliothis virescens [1] = assay: Relative activity of UV-irradiated compounds in inhibiting adult development of fifth-instar larvae; assay type: in vivo; details: for Relative activity, inhibition of adult development: relative to non-irradiated counterpart; for ability to inhibit larvae from reaching the adult stage after UV (in words): 200 h UV
Description: (§1) Azadirachtin, 3-deacetylazadirachtin, 22,23-dihydroazadirachtin, and 2',3',22,23-tetrahydroazadirachtin (1.0 mg/ml absolute ethanol) were placed individually in capped quartz NMR tubes (5×180 mm) and were irradiated with two UV germicidal lights (GE, G30T8, 200-280 nm, 30W) 1.8 m from the source at room temperature for up to 400 h. The controls were identical samples protected from exposure to UV radiation by wrapping with aluminum foil. At selected time intervals, aliquots from both the controls (non-irradiated) and irradiated samples were removed for high-performance liquid chromatography (HPLC) analysis and bioassay (vide infra).
(§2) Individual larvae were injected per os on the first day of the fifth instar with 1.0 μg of either irradiated or non-irradiated compounds dissolved in 1.0 μl of 75% aqueous ethanol.
Table 4: Relative activity of azadirachtin, 3deacetylaza-dirachtin,
22,23dihydroazadirachtin, 2',3',22,23tetrahydroaza-dirachtin, all of whic
had been exposed for 15, 30, 90, 200, and 400 hours to UV radiation, in
inhibiting the adult development of fifthinstar Heliothis virescens
(§3) larvae. Relative activity is defined as the percentage of larvae injected
relative to the percentage injected with its nonirradiated counterpart

[2] = UV stability in ethanol by reversed phase HPLC; assay type: physicochemical; details: for UV lability (in words): UV irradiation, HPLC
Description: Stability of Azadirachtin derivatives was determined as follows:
as §1
Analytical reversed phase HPLC was performed on a phenyl (5μm) column run isocratically with acetonitrile-water (3:7) (Yamasaki et al.) Peaks were detected at 214 nm. The irradiated samples were compared with their corresponding non-UV-irradiated controls by measuring the height of the peak eluting at the appropriate Rt for each irradiated compound relative to each one's non-irradiated control. Results are expressed as the percent of the initial sample concentration remaining relative to the control. Each time point was done in at least triplicate fashion.

Heliothis virescens [3] = assay: Oral injection of fifth-instar larvae, pupal and adult development (non-irradiated compounds); assay type: in vivo; details: for Number Adults / Number Adults Deformed / Number Pupae / Unsuccessful Larvae-Pupae (number) / Unsuccessful Pupae-Adult (number) / Adults (%) / Adults Deformed (%) / Pupae (%) / Unsuccessful Larvae-Pupae (%) / Unsuccessful Pupae-Adult (%): 1.0 microgram injected orally; for Number Adults / Number Adults Deformed / Number Pupae / Unsuccessful Larvae-Pupae (number) / Unsuccessful Pupae-Adult (number): fifth-instar; for Number Adults / Number Adults Deformed / Number Pupae / Unsuccessful Larvae-Pupae (number) / Unsuccessful Pupae-Adult (number) / inhibition of pupation (in words): non-irradiated; for Adults (%) / Adults Deformed (%) / Pupae (%) / Unsuccessful Larvae-Pupae (%) / Unsuccessful Pupae-Adult (%): % of larvae; for inhibition of pupation (in words): 1.0 μg per os
Description: as §2
Table 2: Successful and unsuccessful pupal and adult development of
fifthinstar Heliothis Virescens larvae injected orally with 1.0 microgram
of either azadirachtin, 3deacetylazadirachtin, 22,23dihydroazadirachtin,
or 2',3',22,23tetrahydroazadirachtin.

Heliothis virescens [4] = assay: Relative activity of UV-irradiated compounds in inhibiting pupal development of fifth-instar larvae; assay type: in vivo; details: for Relative activity, inhibition of pupal development: relative to non-irradiated counterpart; for activity retained after 90 h of exposure to UV radiation (in words): 90 h UV
Description: as §1, §2
Table 3: Relative activity of azadirachtin, 3deacetylaza-dirachtin,
22,23dihydroazadirachtin, and 2',3',22,23tetrahydroazadirachtin, all of
which had been exposed for 15, 30, 90, 200, and 400 hours to UV radiation
inhibiting the pupal development of fifthinstar Heliothis virescens
as §3

Heliothis virescens [5] = assay: Artificial diet feeding bioassay, mortality and growth inhibition in first-instar larvae; assay type: in vivo, Heliothis virescens (tobacco budworm); details: for EC50 (concentration causing 50% growth inhibition): Table 1, first-instar Heliothis virescens larvae, artificial diet, parentheses = 95% confidence limits
Excerpt: The results of the growth inhibitory and lethal activities of azadirachtin and these 8 derivatives when fed in an artificial diet to Heliothis virescens larvae are shown in Table 1. Similar to the results of Morgan, E. D., in "Natural pesticides from the Neem tree (Azadirachta indica A. Juss), Schmutterer, H., et al., Eds., Proc. First International Neem Conference (Rottach-Egern, 1980), German Agency for Technical Corporation,Eschborn, Germany, 1982, pps. 43-52 (hereinafter "Morgan"), neither deacetylation nor hydrogenation of the carbon-carbon double bond of the dihydrofuran ring moiety of azadirachtin had any significant effect on activity of the compound against H. virescens.
Mortality and growth inhibition in first-instar Heliothis
virescens larvae fed azadirachtin and eight derivatives in an
artificial diet (I. Kubo and J. A. Klocke, In: Plant Resistance to
Insects (P. A. Helin, Ed.), ACS Symposium Series 208, American Chemical
Society, Washington, D.C. (1983), pp. 329-346.).^a
^b LC50 values are the concentrations (ppm) causing 50%
^c EC50 values are the concentrations (ppm) causing 50% growth
^d Numbers in parentheses are the 95% confidence limits determined
using the methods of Litchfield and Wilcoxon, J. Pharmacol. Exp. Ther.
An artificial diet feeding bioassay with neonate larvae of tobacco budworm (Heliothis virescens) and fall armyworm (Spodoptera frugiperda) was used as previously described (Kubo and Klocke, 1983) to detect insecticidal activities in the plant extracts to monitor fractionation, and to determine the potency of the isolated constituents and derivatives. Potency was determined either as the effective concentration (EC50) of added material that is necessary to reduce larval growth to 50% of the control values or as the lethal concentration (LC50) of added material that is necessary to kill 50% of the treated larvae. EC50 and LC50 values were determined from log probit paper and analyzed statistically by the method of Litchfield and Wilcoxon, supra.

insects [6] = assay: Antifeedant / systemic action; details: in vivo
insects [7] = details: literature; cited from earlier work
insect = details: Kubo & Klocke; cited from earlier work

| SMILES | Relative activity, inhibition of adult development (Heliothis virescens [1]; 15 h UV exposure) [%] | Relative activity, inhibition of adult development (Heliothis virescens [1]; 30 h UV exposure) [%] | Relative activity, inhibition of adult development (Heliothis virescens [1]; 90 h UV exposure) [%] | ability to inhibit larvae from reaching the adult stage after UV (in words) (Heliothis virescens [1]) | Relative activity, inhibition of adult development (Heliothis virescens [1]; 200 h UV exposure) [%] | Relative activity, inhibition of adult development (Heliothis virescens [1]; 400 h UV exposure) [%] | UV lability (in words) [2] | Number Adults (Heliothis virescens [3]) [Number] | Number Adults Deformed (Heliothis virescens [3]) [Number] | Number Pupae (Heliothis virescens [3]) [Number] | Unsuccessful Larvae-Pupae (number) (Heliothis virescens [3]) [Number] | Unsuccessful Pupae-Adult (number) (Heliothis virescens [3]) [Number] | Adults (%) (Heliothis virescens [3]) | Adults Deformed (%) (Heliothis virescens [3]) | Pupae (%) (Heliothis virescens [3]) | Unsuccessful Larvae-Pupae (%) (Heliothis virescens [3]) | Unsuccessful Pupae-Adult (%) (Heliothis virescens [3]) | inhibition of pupation (in words) (Heliothis virescens [3]) | Relative activity, inhibition of pupal development (Heliothis virescens [4]; 15 h UV exposure) [%] | Relative activity, inhibition of pupal development (Heliothis virescens [4]; 30 h UV exposure) [%] | other results |
| --- | --- | --- | --- | --- | --- | --- | --- | --- | --- | --- | --- | --- | --- | --- | --- | --- | --- | --- | --- | --- | --- |
| C/C=C(\C)C(=O)OC1CC(OC(C)=O)C2(C(=O)OC)COC3C2C12COC(O)(C(=O)OC)C2C(C)(C12OC1(C)C1CC2OC2OCCC21O)C3O (stereo not shown) [22,23-dihydroazadirachtin] | 103.5 | 100.1 | 103.5 | more so | 69.0 | 74.5 | UV-labile | 6 | 5 | 47 | 13 | 4 | 3.4 | 2.8 | 26.7 | 7.4 | 2.3 | less effective | 113.1 | 104.6 | degradation following 400 h of exposure to UV radiation (in words) [2]: none of the three compounds remained in their original state; kinetics of UV degradation (in words) [2]: first-order reaction; activity retained after 90 h of exposure to UV radiation (in words) (Heliothis virescens [4]): retained full activity; Relative activity, inhibition of pupal development (Heliothis virescens [4]; 90 h UV exposure): 100.0%; ability to inhibit pupation after UV (in words) (Heliothis virescens [4]; 200 h UV): did decline; Relative activity, inhibition of pupal development (Heliothis virescens [4]; 200 h UV exposure): 72.7%; ability to inhibit pupation after UV (in words) (Heliothis virescens [4]; 400 h UV): even greater decline; activity retained after 400 h of exposure to UV radiation (Heliothis virescens [4]; 400 h UV): approximately 50%; Relative activity, inhibition of pupal development (Heliothis virescens [4]; 400 h UV exposure): 49.1%; ability to inhibit pupation after UV (in words) (Heliothis virescens [4]; up to 90 h UV): not appreciably reduced; EC50 (concentration causing 50% growth inhibition) (Heliothis virescens [5]): 0.08 (0.04-0.15) ppm |
| C/C=C(\C)C(=O)O[C@H]1C[C@@H](OC(C)=O)[C@@]2(C(=O)OC)CO[C@H]3[C@@H](O)[C@@](C)([C@]45O[C@@]4(C)[C@H]4C[C@@H]5O[C@@H]5OC=C[C@@]54O)[C@H]4[C@]1(CO[C@]4(O)C(=O)OC)[C@@H]32 [azadirachtin] | 101.3 | 101.3 | 97.3 | declined sligtly | 89.7 | 81.1 | UV-labile | 2 | 1 | 10 | 5 | 0 | 1.3 | 0.7 | 6.7 | 3.4 | 0 | equally effective | 98.6 | 98.9 | antifeedant function (in words) (insects [6]): function as antifeedants; degraded after 90 h of exposure to UV radiation ([2]; 90 h UV): more than 80%; degradation following 400 h of exposure to UV radiation (in words) ([2]; 400 h UV): none of the three compounds remained in their original state; T1/2 of UV degradation ([2]; UV 200-280 nm, 1.0 mg/ml ethanol, room temperature): 25 h; kinetics of UV degradation (in words) ([2]; under the conditions used, data not shown): first-order reaction; mortality at 0.001 mg (Heliothis virescens [3]; Heliothis virescens, light or radiation study, po, read-out: % Mortality Prior to Adult Stage): 98.7%; ecdysis inhibitory activity (in words) (insects [7]): potent ecdysis inhibitory activity; also recorded: same ecdysis inhibitory activity; activity retained after 90 h of exposure to UV radiation (in words) (Heliothis virescens [4]): retained full activity; Relative activity, inhibition of pupal development (Heliothis virescens [4]; 90 h UV exposure): 85.7%; ability to inhibit pupation after UV (in words) (Heliothis virescens [4]; 200 h UV): did decline; Relative activity, inhibition of pupal development (Heliothis virescens [4]; 200 h UV exposure): 74.2%; ability to inhibit pupation after UV (in words) (Heliothis virescens [4]; 400 h UV): even greater decline; activity retained after 400 h of exposure to UV radiation (Heliothis virescens [4]; 400 h UV): approximately 50%; Relative activity, inhibition of pupal development (Heliothis virescens [4]; 400 h UV exposure): 60.0%; ability to inhibit pupation after UV (in words) (Heliothis virescens [4]; up to 90 h UV): not appreciably reduced; LC50 (Heliothis virescens [5]; Heliothis virescens, po, read-out: LC50 (concentration causing 50% mortality)): 0.8 µg/mL (≈ 1.11 µM); EC50 (concentration causing 50% growth inhibition) (Heliothis virescens [5]): 0.07 (0.05-0.10) ppm |
| C/C=C(\C)C(=O)O[C@@H]1C[C@H](O)[C@]23CO[C@H](C(=O)OC)[C@H]2[C@](C)([C@]24O[C@@]2(C)[C@H]2C[C@@H]4O[C@@H]4OC=C[C@@]42O)[C@H](O)[C@@H]2OC[C@@]1(C(=O)OC)[C@H]23 [deacetylazadirachtinol] |  |  |  |  |  |  |  |  |  |  |  |  |  |  |  |  |  |  |  |  | ecdysis inhibitory activity (in words) (insects [7]): same ecdysis inhibitory activity; insect growth inhibitor activity, fold less active than azadirachtin (insect): about 2.5 fold |

Reference: patent publication US5047242A, “Azadirachtin derivative insecticides” (Native Plant Institute ("NPI"), priority 1987, dated 1991)
